Measured values from ChEMBL document CHEMBL3098108, “Design, synthesis and evaluation of dual pharmacology β2-adrenoceptor agonists and PDE4 inhibitors” (Bioorg Med Chem Lett, 2014).
Activity calls are given as the source filed them. The rule behind the calls is not given here.

Experiments:
[1] = target: Beta-2 adrenergic receptor (Cavia porcellus) (UniProt Q8K4Z4); assay: Agonist activity at guinea pig trachea beta2-adrenergic receptor assessed as relaxation of histamine-induced tracheal ring contraction in presence of ICI-118551
[2] = target: 3',5'-cyclic-AMP phosphodiesterase 4B (Homo sapiens, UniProt Q07343); assay: Inhibition of human recombinant PDE4B2 assessed as inhibition of cAMP hydrolysis by colorimetric assay
[3] = target: Beta-2 adrenergic receptor (Cavia porcellus, UniProt Q8K4Z4); assay: Agonist activity at guinea pig trachea beta2-adrenergic receptor assessed as relaxation of histamine-induced tracheal ring contraction
Chain of Beta-2 adrenergic receptor (Q8K4Z4 whole entry): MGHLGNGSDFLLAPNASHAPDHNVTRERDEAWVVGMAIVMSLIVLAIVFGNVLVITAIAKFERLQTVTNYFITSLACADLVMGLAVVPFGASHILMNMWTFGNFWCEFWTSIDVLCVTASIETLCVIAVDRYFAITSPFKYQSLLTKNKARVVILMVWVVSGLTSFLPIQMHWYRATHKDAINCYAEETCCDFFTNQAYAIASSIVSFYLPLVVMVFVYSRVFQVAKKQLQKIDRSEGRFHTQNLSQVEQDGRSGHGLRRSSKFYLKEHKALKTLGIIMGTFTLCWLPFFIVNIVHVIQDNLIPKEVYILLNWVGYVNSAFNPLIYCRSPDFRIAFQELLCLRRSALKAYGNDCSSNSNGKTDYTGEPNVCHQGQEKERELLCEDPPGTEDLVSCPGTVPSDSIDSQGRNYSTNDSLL

Chain of 3',5'-cyclic-AMP phosphodiesterase 4B (Q07343 whole entry): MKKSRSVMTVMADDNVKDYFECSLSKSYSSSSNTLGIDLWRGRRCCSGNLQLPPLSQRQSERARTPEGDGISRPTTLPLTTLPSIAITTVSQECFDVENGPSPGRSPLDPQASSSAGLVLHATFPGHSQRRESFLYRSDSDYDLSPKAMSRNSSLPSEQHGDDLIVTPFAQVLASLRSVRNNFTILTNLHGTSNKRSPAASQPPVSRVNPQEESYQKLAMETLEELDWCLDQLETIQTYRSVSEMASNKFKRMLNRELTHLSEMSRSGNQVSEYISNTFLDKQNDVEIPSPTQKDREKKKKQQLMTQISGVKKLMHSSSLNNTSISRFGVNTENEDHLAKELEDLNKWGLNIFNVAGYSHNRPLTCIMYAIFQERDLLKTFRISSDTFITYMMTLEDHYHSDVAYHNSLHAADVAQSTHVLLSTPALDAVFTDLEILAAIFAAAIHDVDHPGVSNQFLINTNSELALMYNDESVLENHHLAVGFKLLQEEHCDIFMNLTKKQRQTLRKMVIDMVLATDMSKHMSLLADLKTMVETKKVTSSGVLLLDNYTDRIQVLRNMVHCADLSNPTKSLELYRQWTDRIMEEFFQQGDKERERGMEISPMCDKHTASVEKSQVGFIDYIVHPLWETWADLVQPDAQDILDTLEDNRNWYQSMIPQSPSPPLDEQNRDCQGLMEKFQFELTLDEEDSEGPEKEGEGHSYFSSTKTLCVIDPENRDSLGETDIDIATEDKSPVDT
Chain of Beta-2 adrenergic receptor (Cavia porcellus) (Q8K4Z4 whole entry, looked up): as the sequence (Q8K4Z4 whole entry) above

In the case of `COc1ccc(C2=NN(CCCCCCOc3ccc(C[C@@H](C)NC[C@H](O)c4ccc(O)c(NC=O)c4)cc3)C(=O)C3CCCCC23)cc1OC` (some centres undefined), the Activity [1] is reported as “Active”, the IC50 [2] is reported as 92 nM and the EC50 [3] is reported as 1.05 nM.

Work on `COc1ccc(C2=NN(CCCCCOc3ccc(CC(C)NCC(O)c4ccc(O)c(NC=O)c4)cc3)C(=O)C3CCCCC23)cc1OC` (centres undefined) yielded an IC50 [2] of 118 nM and an EC50 [3] of 12.6 nM.

For `COc1ccc(C2=NN(CCCCOc3ccc(CC(C)NCC(O)c4ccc(O)c(NC=O)c4)cc3)C(=O)C3CCCCC23)cc1OC` (centres undefined), the IC50 [2] was 117 nM and the EC50 [3] was 10.3 nM.

Work on `COc1ccc(C2=NN(CCCCCCOc3ccc(CC(C)NCC(O)c4ccc(O)c(NC=O)c4)cc3)C(=O)C3CCCCC23)cc1OC` (racemic) yielded an IC50 [2] of 104 nM and an EC50 [3] of 5.02 nM.
